Source: ChEMBL document CHEMBL1201862, “PubChem BioAssay data set” (2004)
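48-hour exposure; five concentrations; linearly interpolated endpoints. GI50 marks 50% less growth.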 Active and inactive are the calls of the source. No stated cut-off is given here; in the data, active = GI50 up to about 1.1 µM and inactive = higher.

Experiments:
Experiment in all cases: NCI tumour cell line growth inhibition, 48 h
[1] = test system: SK-OV-3
[2] = test system: SW-620
[3] = test system: SF-539
[4] = test system: DU-145
[5] = test system: NCI-H460
[6] = test system: SNB-19
[7] = test system: HL-60
[8] = test system: MCF7
[9] = test system: OVCAR-8
[10] = test system: SN12C
[11] = test system: RXF 393
[12] = test system: HCC 2998
[13] = test system: K562
[14] = test system: IGROV-1
[15] = test system: MOLT-4
[16] = test system: UO-31
[17] = test system: HCT-116
[18] = test system: RPMI-8226
[19] = test system: A498
[20] = test system: HOP-92

CCC(C)c1c(Cl)nc(Cl)nc1Cl (configuration not stated)
GI50 [1]: 36.2 µM (inactive) | GI50 [2]: 3.71 µM (inactive) | GI50 [3]: 23.4 µM (inactive) | GI50 [4]: 16.3 µM (inactive) | GI50 [5]: 7.46 µM (inactive) | GI50 [6]: 16 µM (inactive) | GI50 [7]: 2.99 µM (inactive) | GI50 [8]: 4.45 µM (inactive) | GI50 [9]: 17.9 µM (inactive) | GI50 [10]: 6.89 µM (inactive) | GI50 [11]: 8.02 µM (inactive) | GI50 [12]: 11.4 µM (inactive) | GI50 [13]: 2.2 µM (inactive) | GI50 [14]: 14.4 µM (inactive) | GI50 [15]: 0.271 µM (active) | GI50 [16]: 17.9 µM (inactive) | GI50 [17]: 6.07 µM (inactive) | GI50 [18]: 11 µM (inactive)

CCNC(=S)NNC(=O)c1csc(NC(=S)NC2CCCCC2)n1
GI50 [1]: 21.3 µM (inactive) | GI50 [2]: 5.27 µM (inactive) | GI50 [3]: 6.17 µM (inactive) | GI50 [4]: 12.1 µM (inactive) | GI50 [5]: 6.62 µM (inactive) | GI50 [6]: 37.5 µM (inactive) | GI50 [8]: 4.69 µM (inactive) | GI50 [19]: 23 µM (inactive) | GI50 [9]: 10 µM (inactive) | GI50 [10]: 3.19 µM (inactive) | GI50 [12]: 8.17 µM (inactive) | GI50 [15]: 3.11 µM (inactive) | GI50 [16]: 8.45 µM (inactive) | GI50 [17]: 5.26 µM (inactive) | GI50 [18]: 11.7 µM (inactive)

Cc1cc(-c2cc(C(C)(C)C)c(O)c(C(C)(C)C)c2)c(C)cc1-c1cc(C(C)(C)C)c(O)c(C(C)(C)C)c1
GI50 [1]: > 100 µM (inactive) | GI50 [2]: > 100 µM (inactive) | GI50 [3]: > 100 µM (inactive) | GI50 [20]: 12.1 µM (inactive) | GI50 [4]: > 100 µM (inactive) | GI50 [6]: > 100 µM (inactive) | GI50 [7]: > 100 µM (inactive) | GI50 [8]: > 100 µM (inactive) | GI50 [19]: 27.3 µM (inactive) | GI50 [9]: > 100 µM (inactive) | GI50 [10]: > 100 µM (inactive) | GI50 [13]: > 100 µM (inactive) | GI50 [14]: > 100 µM (inactive) | GI50 [15]: > 100 µM (inactive) | GI50 [16]: > 100 µM (inactive) | GI50 [17]: > 100 µM (inactive) | GI50 [18]: > 100 µM (inactive)

COC1C(O)CC(OC2C(C)OC(Oc3cc(O)c4c(O)c5c(cc4c3)C[C@@H]([C@H](OC)C(=O)[C@@H](O)[C@@H](C)O)[C@H](OC3CC(OC4CC(OC6CC(C)(O)C(O)C(C)O6)C(O)C(C)O4)C(O)C(C)O3)C5=O)CC2OC(C)=O)OC1C (some centres not stated)
GI50 [1]: > 100 µM (inactive) | GI50 [2]: > 100 µM (inactive) | GI50 [3]: 38.6 µM (inactive) | GI50 [4]: > 100 µM (inactive) | GI50 [5]: 31.6 µM (inactive) | GI50 [6]: 33.2 µM (inactive) | GI50 [7]: > 100 µM (inactive) | GI50 [8]: 24.4 µM (inactive) | GI50 [19]: > 100 µM (inactive) | GI50 [9]: 67.1 µM (inactive) | GI50 [10]: 32.5 µM (inactive) | GI50 [12]: 97.9 µM (inactive) | GI50 [13]: 40.1 µM (inactive) | GI50 [14]: 41.1 µM (inactive) | GI50 [15]: 17.5 µM (inactive) | GI50 [16]: > 100 µM (inactive) | GI50 [17]: 59.2 µM (inactive) | GI50 [18]: 60.8 µM (inactive)

CC(=O)n1nc(-c2ccc3ccccc3c2)nc1C
GI50 [1]: > 100 µM (inactive) | GI50 [2]: 32.8 µM (inactive) | GI50 [3]: > 100 µM (inactive) | GI50 [4]: 94.6 µM (inactive) | GI50 [5]: 95.9 µM (inactive) | GI50 [7]: 46 µM (inactive) | GI50 [8]: > 100 µM (inactive) | GI50 [9]: > 100 µM (inactive) | GI50 [10]: > 100 µM (inactive) | GI50 [11]: > 100 µM (inactive) | GI50 [12]: > 100 µM (inactive) | GI50 [13]: 90.8 µM (inactive) | GI50 [14]: > 100 µM (inactive) | GI50 [15]: 56.8 µM (inactive) | GI50 [16]: 39.4 µM (inactive) | GI50 [17]: 67.3 µM (inactive)

C[n+]1c(-c2ccc(/C=N\N3CCN(/N=C/c4ccc(-c5cn6ccccc6[n+]5C)cc4)CC3)cc2)cn2ccccc21
GI50 [1]: > 100 µM (inactive) | GI50 [2]: 76.6 µM (inactive) | GI50 [3]: 48.4 µM (inactive) | GI50 [20]: 26.4 µM (inactive) | GI50 [4]: 34.4 µM (inactive) | GI50 [5]: 58.6 µM (inactive) | GI50 [6]: 32 µM (inactive) | GI50 [7]: 21.2 µM (inactive) | GI50 [8]: > 100 µM (inactive) | GI50 [19]: 16.2 µM (inactive) | GI50 [9]: > 100 µM (inactive) | GI50 [10]: 54.5 µM (inactive) | GI50 [11]: 24.5 µM (inactive) | GI50 [14]: 57.9 µM (inactive) | GI50 [15]: 68.7 µM (inactive) | GI50 [16]: > 100 µM (inactive) | GI50 [17]: 70.8 µM (inactive) | GI50 [18]: 20.9 µM (inactive)

O/N=N/c1ccc(Sc2ccc(/N=N/O)cn2)nc1
GI50 [1]: > 100 µM (inactive) | GI50 [2]: > 100 µM (inactive) | GI50 [3]: > 100 µM (inactive) | GI50 [4]: > 100 µM (inactive) | GI50 [5]: > 100 µM (inactive) | GI50 [6]: > 100 µM (inactive) | GI50 [7]: > 100 µM (inactive) | GI50 [8]: > 100 µM (inactive) | GI50 [19]: > 100 µM (inactive) | GI50 [9]: > 100 µM (inactive) | GI50 [10]: > 100 µM (inactive) | GI50 [12]: > 100 µM (inactive) | GI50 [13]: > 100 µM (inactive) | GI50 [14]: > 100 µM (inactive) | GI50 [15]: > 100 µM (inactive) | GI50 [16]: 46.8 µM (inactive) | GI50 [17]: > 100 µM (inactive)

CCCCI(O)OS(=O)(=O)c1ccc(C)cc1
GI50 [1]: > 100 µM (inactive) | GI50 [2]: > 100 µM (inactive) | GI50 [3]: > 100 µM (inactive) | GI50 [20]: > 100 µM (inactive) | GI50 [4]: > 100 µM (inactive) | GI50 [6]: > 100 µM (inactive) | GI50 [8]: > 100 µM (inactive) | GI50 [19]: > 100 µM (inactive) | GI50 [9]: > 100 µM (inactive) | GI50 [10]: > 100 µM (inactive) | GI50 [11]: > 100 µM (inactive) | GI50 [12]: > 100 µM (inactive) | GI50 [13]: 67.8 µM (inactive) | GI50 [14]: 28.2 µM (inactive) | GI50 [15]: > 100 µM (inactive) | GI50 [16]: 23.9 µM (inactive) | GI50 [17]: > 100 µM (inactive) | GI50 [18]: 50.6 µM (inactive)
